Experimental data published in PMC3188330 (2011).

Assays:
UGT1A10 [1] = target: T1, UGT1A10 (Homo sapiens, UniProt Q9HAW8); experiment: glucuronidation rate at […]; type: cell-based
T1 sequence (Q9HAW8 26-530): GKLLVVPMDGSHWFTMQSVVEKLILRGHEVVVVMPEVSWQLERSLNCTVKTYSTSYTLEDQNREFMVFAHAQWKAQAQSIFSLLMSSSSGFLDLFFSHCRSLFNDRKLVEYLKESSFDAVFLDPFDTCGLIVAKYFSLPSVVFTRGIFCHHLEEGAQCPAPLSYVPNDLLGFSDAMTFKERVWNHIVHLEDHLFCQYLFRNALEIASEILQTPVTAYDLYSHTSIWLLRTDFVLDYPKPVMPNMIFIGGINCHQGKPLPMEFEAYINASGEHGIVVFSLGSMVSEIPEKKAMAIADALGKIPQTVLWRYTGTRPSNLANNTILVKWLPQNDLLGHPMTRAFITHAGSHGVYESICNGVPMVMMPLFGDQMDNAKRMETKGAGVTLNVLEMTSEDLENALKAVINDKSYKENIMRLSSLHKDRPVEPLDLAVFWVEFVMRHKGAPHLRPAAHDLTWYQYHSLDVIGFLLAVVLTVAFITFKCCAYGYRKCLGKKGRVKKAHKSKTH

UGT1A10 [2] = target: T1, UGT1A10; experiment: glucuronidation rate at […]; type: cell-based; remark: listed apart in the source

Structure (SMILES)	glucuronidation rate at 100 μM (HPLC) (UGT1A10 [1])	glucuronidation rate at 500 μM (HPLC) (UGT1A10 [2])
Oc1cccc2ccccc12 [1-naphthol]	F93L catalyzed 1-naphthol glucuronidation at about twice the rate of the control UGT1A10	
COc1cc2ccc(=O)oc2cc1O [scopoletin]		majority of the mutants were higher than control, up to six fold the (normalized) rate of UGT1A10
